Here are results for 39 compounds from US7598260B2, “CDK-inhibitory pyrimidines, their production and use as pharmaceutical agents” (Bayer Schering Pharma Aktiengesellschaft, priority 2001, dated 2009).

One series deals with T1, CDK2/CycE (Homo sapiens, UniProt P24941).
T1 construct: GST; purchased Dr. Dieter Marmé, Klinik für Tumorbiologie, Freiburg; host or cells: baculovirus-infected Sf9 insect cells
Kind of series: CDK2/CycE kinase assay (enzyme test). It counts as biochemical. The note with it: read-out: Inhibition IC50 [nM] CDK2/CycE. On the procedure: Recombinant CDK2- and CycE-GST-fusion proteins, purified from baculovirus-infected insect cells (Sf9), are obtained by Dr. Dieter Marmé, Klinik für Tumorbiologie [Clinic for Tumor Biology], Freiburg. Histone IIIS, which is used as a kinase substrate, is purchased by the Sigma Company.
The reaction was is stopped by adding EDTA solution (250 mmol, pH 8.0, 14 μl/measuring point).
From each reaction batch, 10 μl applied to P30 filter strips (Wallac Company), and non-incorporated ^33P-ATP is removed by subjecting the filter strips to three washing cycles for 10 minutes each in 0.5% phosphoric acid. After the filter strips are dried for one hour at 70° C., the filter were are covered with scintillator strips (MeltiLex™ A, Wallac Company) and baked for one hour at 90° C. The amount of incorporated ^33P (substrate phosphorylation) is determined by scintillation measurement in a gamma-radiation measuring device (Wallac).

The subject of a further series is MCF-7 cells. In words: Proliferation assay, crystal violet staining (cell test), MCF-7. It counts as cell-based. As to conditions: Homo sapiens. On the procedure:
(§1) Cultivated human tumor cells (as indicated) are flattened out at a density of 5000 cells/measuring point in a 96-hole multititer plate in 200 μl of the corresponding growth medium. After 24 hours, the cells of one plate (zero-point plate) are colored with crystal violet (see below), while the medium of the other plates is replaced by fresh culture medium (200 μl), to which the test substances are added at various concentrations (0 μm, as well as in the range of 0.01-30 μm; the final concentration of the solvent dimethyl sulfoxide is 0.5%). The cells are incubated for 4 days in the presence of test substances. The cell proliferation is determined by coloring the cells with crystal violet: the cells are fixed by adding 20 μl/measuring point of a 11% glutaric aldehyde solution for 15 minutes at room temperature. After three washing cycles of the fixed cells with water, the plates are dried at room temperature. The cells are colored by adding 100 μl/measuring point of a 0.1% crystal violet solution (pH is set at 3 by adding acetic acid). After three washing cycles of the colored cells with water, the plates are dried at room temperature. The dye is dissolved by adding 100 μl/measuring point of a 10% acetic acid solution. The extinction is determined by photometry at a wavelength of 595 nm. The change of cell growth, in percent, is calculated by standardization of the measured values to the extinction values of the zero-point plate (=0%) and the extinction of the untreated (0 μm) cells (=100%).

Series [1] concerns human tumor cells (as indicated). Kind of series: Proliferation assay, crystal violet staining, other human tumor cells as indicated in the tables. As to conditions: 4 days incubation. It counts as cell-based. On the procedure: as §1
A short description of series [2]: Solubility (Löslichkeit, g/l). It counts as physicochemical.
Setting [3] is: 96 h, MCF7 cells, 4 days incubation, read-out: Proliferation IC50 [μM] MCF7.
Setting [4] is: DU-145, 96 h, DU145 cells, read-out: Proliferation IC50 [μM] DU145.
Where [5] appears, read: HCT-116, 96 h, HCT116 cells, read-out: Proliferation IC50 [μM] HCT116.
Setting [6] is: NCI-H460, 96 h, H460 cells, read-out: Proliferation IC50 [μM] H460.
Setting [7] is: MCF7, MCF-7 cells, comparison with known compounds, read-out: MCF-7 IC50.

SMILES strings stand for the structures. Read-outs that look alike come from different tables or passages of the source.

On to `NS(=O)(=O)c1ccc(Nc2ncc(Br)c(OCCCC(F)(F)F)n2)cc1` [Example 47], for which the IC50 at CDK2/CycE amounted to 12 nM; in the series on MCF-7 cells (setting [3]) it was 0.7 µM; in series [1] (setting [4]) it was 0.9 µM; in series [1] (setting [5]), 1.3 µM; in series [1] (setting [6]), 1.8 µM.

As for `C#CCNc1nc(Nc2cccc(SC)c2)ncc1Br` [Example 26], the IC50 on CDK2/CycE worked out at 300 nM; in the series on MCF-7 cells (setting [3]), 3 µM.

Regarding `CSc1ccc(Nc2ncc(Br)c(NCCN3CCOCC3)n2)cc1` [Example 13], the values for the IC50 at CDK2/CycE and in the series on MCF-7 cells (setting [3]) were 2000 nM and greater than 10 µM, respectively.

For `C#CCNc1nc(Nc2ccc(C(C)=O)cc2)ncc1Br` [Example 50, 1-[4-[(5-Bromo-4-(2-propynylamino)-2-pyrimidinyl)amino]phenyl]-ethanone], the IC50 at CDK2/CycE came out at 150 nM.

As for `CC(C)[C@H](CO)Nc1nc(Nc2ccc(S(N)(=O)=O)cc2)ncc1Br` [Example 10], the IC50 at CDK2/CycE was determined as 4 nM; with MCF-7 cells (setting [3]), 0.2 µM; in series [1] (setting [4]), 0.5 µM; in series [1] (setting [5]), 0.5 µM; in series [1] (setting [6]) it was 0.5 µM.

`CC(=O)c1ccc(Nc2ncc(Br)c(OCCCC(F)(F)F)n2)cc1` [Example 84]: the IC50 at CDK2/CycE came to 400 nM. For the same compound, in series [2], the “Sw” value was found to be 0.0005 g/L.

Consider `C#CCNc1nc(Nc2ccc(SC)cc2)ncc1Br` [Example 16, 5-Bromo-N2-(4-methylthiophenyl)-N4-2-propynyl-2,4-pyrimidine diamine], for which the IC50 on CDK2/CycE amounted to 300 nM; in the series with MCF-7 cells (setting [3]), 3 µM.

On to `CSc1ccc(Nc2ncc(Br)c(N[C@@H](CO)C(C)C)n2)cc1` [Example 15], for which the results for the IC50 at CDK2/CycE and in the series with MCF-7 cells (setting [3]) were 300 nM and greater than 10 µM, respectively. Further, the “Sw” value in series [2] is 0.024 g/L.

In the case of `COC[C@H](C)Nc1nc(Nc2ccc(SC)cc2)ncc1Br` [Example 12], the IC50 on CDK2/CycE is 400 nM; in the series with MCF-7 cells (setting [3]), 4 µM.

As for `CCOCCOCCOc1nc(Nc2ccc(C(C)=O)cc2)ncc1Br` [Example 86], at CDK2/CycE, the IC50 was 3000 nM.

In the case of `O=C1Cc2c([nH]c3ccc([N+](=O)[O-])cc23)-c2ccccc2N1` [Alsterpaullone, reference compound], the IC50 in the series with MCF-7 cells (setting [7]) turned out to be 1.2 µM.

`CC(=O)c1ccc(Nc2ncc(Br)c(NCCc3c[nH]cn3)n2)cc1` [Example 87]: the results for the IC50 at CDK2/CycE and in the series with MCF-7 cells (setting [3]) were 250 nM and 0.8 µM, respectively. Further, the “Sw” value in series [2] turned out to be 0.003 g/L.

As for `CC(=O)c1ccc(Nc2ncc(Br)c(N[C@@H](CO)C(C)C)n2)cc1` [Example 56], the IC50 at CDK2/CycE was 80 nM; in the series on MCF-7 cells (setting [3]) it was 4 µM. For the same compound, the “Sw” value in series [2] amounted to 0.023 g/L.

`C#CCNc1nc(Nc2cccc(S(=O)(=O)C(F)(F)F)c2)ncc1Br` [Example 27]: the IC50 at CDK2/CycE is greater than 10000 nM.

On to `Oc1ccc(Nc2ncc(Br)c(NCCN3CCOCC3)n2)cc1` [Example 2], for which the IC50 at CDK2/CycE was determined as 700 nM.

With `C#CCNc1nc(Nc2cccc(S(=O)(=O)CCO)c2)ncc1Br` [Example 21], the IC50 was 400 nM on CDK2/CycE and 2 µM in the series with MCF-7 cells (setting [3]).

In the case of `COC[C@H](C)Nc1nc(Nc2ccc(O)cc2)ncc1Br` [Example 1], the IC50 on CDK2/CycE worked out at 300 nM; with MCF-7 cells (setting [3]), 8 µM.

Regarding `CC(=O)c1ccc(Nc2ncc(Br)c(N[C@H](CO)C(C)C)n2)cc1` [Example 53], the IC50 came to 300 nM at CDK2/CycE and 1.6 µM with MCF-7 cells (setting [3]). In series [2], the “Sw” value was determined as 0.026 g/L.

On to `C#CCNc1nc(Nc2ccc(O)cc2)ncc1Br` [Example 5, 4-[[5-Bromo-4-(2-propynylamino)-2-pyrimidinyl]amino]-phenol], for which the values for the IC50 at CDK2/CycE and with MCF-7 cells (setting [3]) were 90 nM and 10 µM, respectively. For the same compound, in series [2], the “Sw” value is 0.043 g/L.

Regarding `C#CCOc1nc(Nc2ccc(OCC(O)CN3CCN(c4ccccc4C#N)CC3)cc2)ncc1Br` (centres unmarked) [Example 98], the IC50 on CDK2/CycE amounted to 2000 nM.

As for `C#CCNc1nc(Nc2ccc3[nH]ncc3c2)ncc1Br` [Example 37, N-[5-Bromo-4-(2-propynylamino)-2-pyrimidinyl]-indazol-5-amine], the IC50 at CDK2/CycE stood at 70 nM; in the series on MCF-7 cells (setting [3]), 4 µM. For the same compound, the “Sw” value in series [2] amounted to 0.006 g/L.

As to `O=C1Cc2c([nH]c3ccc(Br)cc23)-c2ccccc2N1` [Kenpaullone, reference compound], the IC50 in the series on MCF-7 cells (setting [7]) came to 6 µM.

As to `C#CCNc1nc(Nc2ccc(S(N)(=O)=O)cc2)ncc1Br` [Example 11], the IC50 at CDK2/CycE was 6 nM; with MCF-7 cells (setting [3]) it was 0.2 µM; in the series with MCF-7 cells (setting [7]), 0.2 µM; in series [1] (setting [4]) it was 0.2 µM; in series [1] (setting [5]), 0.3 µM; in series [1] (setting [6]), 0.5 µM.

Take `O=S(=O)(CCO)c1cccc(Nc2ncc(Br)c(NCCN3CCOCC3)n2)c1` [Example 18]: the IC50 on CDK2/CycE was found to be 2000 nM. Besides, the “Sw” value in series [2] was 0.039 g/L.

`CC(C)[C@H](CO)Nc1nc(Nc2ccc(O)cc2)ncc1Br` [Example 4]: the results for the IC50 on CDK2/CycE and in the series with MCF-7 cells (setting [3]) were 40 nM and 8 µM, respectively. Besides, the “Sw” value in series [2] stood at 0.042 g/L.

`CC(C)[C@H](CO)Nc1nc(Nc2cccc(Cl)c2)c2ncn(C(C)C)c2n1` [Purvalanol A, reference compound]: the IC50 in the series on MCF-7 cells (setting [7]) came out at 2 µM.

Consider `CSc1ccc(Nc2ncc(Br)c(NC(CO)CO)n2)cc1` [Example 14], for which the IC50 was 200 nM on CDK2/CycE and 3 µM with MCF-7 cells (setting [3]). Also, the “Sw” value in series [2] was determined as 0.013 g/L.

For `OCC(CO)Nc1nc(Nc2ccc(O)cc2)ncc1Br` [Example 3], the IC50 at CDK2/CycE came to 200 nM; with MCF-7 cells (setting [3]) it was 8 µM. The “Sw” value in series [2] is 0.039 g/L.

Consider `C#CCNc1nc(Nc2ccc3scnc3c2)ncc1Br` [Example 38, N-[5-Bromo-4-(2-propynylamino)-2-pyrimidinyl]-benzothiazole-5-amine], for which the IC50 on CDK2/CycE was 80 nM; with MCF-7 cells (setting [3]) it was greater than 10 µM.

`C#CCNc1nc(Nc2cccc(S(=O)(=O)NCCCC)c2)ncc1Br` [Example 34]: the IC50 at CDK2/CycE was determined as 1800 nM.

In the case of `C#CCOc1nc(Nc2ccc(OCC(O)CN3CCN(Cc4ccc5c(c4)OCO5)CC3)cc2)ncc1Br` (centres unmarked) [Example 96], the IC50 at CDK2/CycE is 400 nM.

Regarding `CCOC(=O)CCCNc1nc(Nc2ccc(C(C)=O)cc2)ncc1Br` [Example 85], the IC50 at CDK2/CycE was found to be 2000 nM. Besides, the “Sw” value in series [2] was 0.001 g/L.

Turning to `C#CCNc1nc(Nc2ccc(SC(F)F)cc2)ncc1Br` [Example 23, 5-Bromo-N2-(4-difluoromethylthiophenyl)-N4-2-propynyl-2,4-pyrimidine diamine], the IC50 at CDK2/CycE amounted to 180 nM; in the series with MCF-7 cells (setting [3]), 3 µM.

Take `C#CCNc1nc(Nc2cccc(SC(F)(F)F)c2)ncc1Br` [Example 35, 5-Bromo-N4-2-propynyl-N2-(3-trifluoromethylthiophenyl)-2,4-pyrimidine diamine]: the results for the IC50 at CDK2/CycE and in the series with MCF-7 cells (setting [3]) were 120 nM and greater than 10 µM, respectively.

For the compound `C#CCOc1nc(Nc2cccc(O)c2)ncc1Br` [Example 20], the figures for the IC50 at CDK2/CycE and in the series on MCF-7 cells (setting [3]) were 60 nM and 4 µM, respectively.

`C#CCOc1nc(Nc2cccc(OCC3CO3)c2)ncc1Br` (centres unmarked) [Example 51]: the IC50 on CDK2/CycE worked out at 70 nM; in the series with MCF-7 cells (setting [3]), 8 µM.

For the compound `C#CCNc1nc(Nc2ccc3c(c2)CCN3S(C)(=O)=O)ncc1Br` [Example 39], the IC50 on CDK2/CycE was 300 nM. In addition, the “Sw” value in series [2] was 0.0016 g/L.

For `Cn1cnc2c(NCc3ccccc3)nc(NCCO)nc21` [Olomoucine, reference compound], in the series with MCF-7 cells (setting [7]), the IC50 is 30 µM.

With `C#CCNc1nc(Nc2ccc(SC(F)(F)F)cc2)ncc1Br` [Example 24, 5-Bromo-N4-2-propynyl-N2-(4-trifluoromethylthiophenyl)-2,4-pyrimidine diamine], the IC50 on CDK2/CycE amounted to 400 nM; in the series on MCF-7 cells (setting [3]) it was 5 µM.
